For assay [1], the system named is human cells. The following applies: cited from earlier work.
Assay [2] has as its system nerve terminal. Particulars: cited from earlier work.
For assay [3], the system named is CMT2 neurons. Put plainly: Acetylated α-tubulin levels in CMT2 neurons after HDAC6 inhibitor treatment. The class given is cell-based, human. Particulars: data not shown. The text has this: Treatment with this compound was also found to improve both the absolute velocity and the total number of moving axonal mitochondria. Decreased acetylated α-tubulin abundance is a characteristic feature of CMT2, and has been directly linked to severe axonal transport deficits in mouse models of the disease. […] The NMJ platform constitutes the ideal model for performing assessment of whether the reported changes result in restoration of WT NMJ phenotypes. Furthermore, the establishment of methods for screening compound action using this platform is translatable to other drug candidates and models of other neuropathic disease states.

For assay [4], the system named is CMT2 neurons. In words: Live cell imaging of mitochondrial transport along axons of CMT2 iPSC motor neurons. The class given is cell-based, human. On the procedure:
Mitochondrial transport along axons is evaluated using live cell imaging of cultured neurons. Cells are infected with a lentiviral vector expressing mitochondrially targeted fluorescent probe dsRed (mito-dsRed) permitting real-time assessment of mitochondrial movement. Cells are placed within an environmental chamber mounted on an epifluorescent microscope and mitochondrial movement is recorded for 10 minutes with 3-second time-lapse intervals. Image analysis is performed with ImageJ, and Matlab code can be used, for example, to calculate mitochondrial velocity by measuring the distance between the position of individual mitochondria at the start and end of time-lapse recordings and dividing by the time elapsed. This provides a measure of overall transport velocity that includes anterograde and retrograde movements and stationary periods. Mitochondria are then classified as motile (velocity >0.1 μm s-1) or stationary (velocity ≤0.1 μm s-1), in line with disclosed methods (see e.g., Saporta et al. Experimental neurology. 2015; 263:190-9). Immunostaining is used to quantify mitochondrial density within the developing growth cone of cultured neurons as a means to evaluate the effect of altered transport on presynaptic development. To account for time dependent maturation, neurons are evaluated for all end-points following 1, 2, 3, and 4 weeks in culture. […]

The subject of assay [5] is neurons. Particulars: following spinal cord, head injury, and cerebral ischemia; by blocking excitotoxicity; cited from earlier work.
In assay [6] the test system is ALS patients. The following applies: cited from earlier work.

In the case of `O=C(NCCO[N+](=O)[O-])c1cccnc1` [Nicorandil], the “mitochondrial production of reactive oxygen species (ROS)” value in assay [1] is on record as “limit mitochondrial production of reactive oxygen species”.
`Nc1ccncc1N` [3,4-diaminopyridine]: in assay [2], the “acetylcholine release from the nerve terminal” value is listed as “enhances” and the “conduction in unmyelinated nerves” value was “improves”.
Take `CN1CCc2c(c3ccccc3n2Cc2ccc(C(=O)NO)cc2)C1` [Tubastatin A]: the “levels of acetylated α-tubulin” value in assay [3] is listed as “significantly improved”. Besides, in assay [4], the “absolute velocity of moving axonal mitochondria” value is listed as “improve” and the “total number of moving axonal mitochondria” value is “improve”.
Consider `Cc1cccc(C)c1OCC(C)N` (centres unmarked) [Mexiletine], for which, in assay [5], the protection of neurons entry was “protective of neurons”.
For `Nc1nc2ccc(OC(F)(F)F)cc2s1` [Riluzole], in assay [6], the prolongation of life entry is listed as “prolonging life by a few months”.

The values are drawn from patent publication US20210348107A1, “DEVICE AND SYSTEMS COMPRISING ELECTRODE ARRAYS FOR ELECTROCONDUCTIVE CELLS” (UNIVERSITY OF WASHINGTON, priority 2018, published 2021).
